Experimental data from patent US5380715A, “Ap4 A as a hypotensive agent” (Fujirebio Inc., priority 1992, dated 1995).
Where two headings read alike, the source gives them in different places.

Assays:
[1] = test system: rabbit platelet aggregation; assay: Inhibitory effect on rabbit platelet aggregation; type: cell-based; conditions: rabbit PRP
Procedure: Fresh blood samples were collected from male Japanese white rabbits weighing 2-3 kg. Blood was anticoagulated with citric acid (1 ml 3.8% citric acid solution +9 ml blood). These samples were centrifuged at room temperature for 20 min at 200×g to obtained platelet-rich plasma (PRP). Furthermore, the supernatant liquid was centrifuged for 10 min at 1500×g to obtained platelet-poor plasma (PPP). Aggregation of platelests was measured photometrically in a Nihon Kohden hema tracer equipped with a mechanical stirring device and with a chart record. At this time, the chart recorder was calibrated as follows: the light transmission obtained with PPP was set as 100% transmission and the optical density of PRP was taken as 0% transmission. Maximal aggregation, i.e. the maximal change in optical density of the primary wave calculated in percent light transmission. From the study, it was determined that ADP, Ap3A, PAF(platelet activating factor) and collagen induced maximal aggregations at a concentration of 1×10^-5 M, 1×10^-4 M, 1.9×10^-7 M and 5 μg/kg, respectively. In the following studies, these aggregating agents were used at maximal dose. The effect of Ap4A on platelet aggregation by ADP and Ap3A were tested. In this time, Ap4A was pretreated for 1 or 10 min before the addition of aggregating agents. Also, after the platelet aggregation was induced by addition of ADP, PAF or collagen to PRP, the platelet aggregate dispersing effect of Ap4A was tested.

[2] = words, cited from earlier work
dogs = assay: Gradual hypotension during anesthesia in dogs (hemodynamics, blood gas); type: in vivo, mongrel dogs; conditions: dog; for Arterial Carbonate Tension PaCO2 / Arterial Oxygen Tension PaO2 / Arterial pH (pH-a) / Body Temperature BT / Cardiac Output C.O. / Central Venous Pressure CVP / Dose / Heart Rate H.R. / Hematocrit Value Hct / Mean Blood Pressure B.P. (mean) / Mean Blood Pressure B.P. (Δ%) / Mixed Venous Carbonate Tension PvCO2 / Mixed Venous Oxygen Tension PvO2 / Mixed Venous pH (pH-v) / Pulmonary Artery Pressure PAM / Pulmonary Capillary Wedge Pressure PCWP: enflurane
Procedure: Dogs were anesthetized with enflurane. […] The mean blood pressure (B.P.), heart rate (H.R.), cardiac output (C.O.), arterial oxygen tension (PaO2), mixed venos oxygen tension (PvO2), arterial carbonate tension (PaCO2), mixed venous carbonate tension (PvCO2), arterial pH (pH-a), mixed venous pH (pH-v), and base excess thereof were measured.
Mongrel dogs weighing 9 to 17 kg were anesthetized with intravenous thiopental 20 mg/kg by bolus injection, followed by 1% enflurane in 40% O2 /N2 after endotracheal intubation. […] Bilateral femoral arteries were catheterized, one for the determination of blood pressure and the other for blood sampling.
Access to the bilateral femoral veins was obtained for the administration of Ap4A, PG E1 or nitroglycerin and for the insertion of a ballon-tipped thermodilution catheter. The electrocardiogram was continuously monitored. The control values were obtained before the administration of each of the above-mentioned three agents. Each agent was administered using a syringe pump at titrated doses to produce gradual 20%, 40%, 50%, 60%, and 80% decreases in the mean arterial pressure (MAP) from the control value.
After the target blood pressure and stable hemodynamic conditions were reached, the following parameters were measured: heart rate (HR), mean pulmonary artery pressure (PAM), pulmonary capillary wedge pressure (PCWP), and central venous pressure (CVP). Cardiac output (CO) was determined by the thermodilution method. Gas analyses of arterial and mixed venous bloods were performed using a blood gas analyzer.

rats [3] = assay: Gradual hypotension during anesthesia in rats; type: in vivo, male SD rats; conditions: rat, enflurane
Procedure: Male SD rats (Charles River Japan Inc.) were anesthetized with intravenous thiopental 50 mg/kg as a bolus, followed by 1% enflurane in air.
A femoral artery was catheterized to monitor the blood pressure and heart rate, while a femoral vein was catheterized for the administration of each of the test drugs.
(§1) The control values were obtained before the administration of each test drug. Each test drug was then administered using a syringe in a dose-dependent manner for 15 minutes. The percentage (%) of the decrease of blood pressure was determined when stabilized. Changes in heart rate (H.R.) at the administration of each test drug were measured. Furthermore,the recovery of mean blood pressure after intravenous infusion of each test drug was also determined from the decrease in heart rate and the blood pressure at a maximum dose of each test drug.

rats [4] = assay: Recovery of blood pressure after gradual hypotension in rats; type: in vivo, male SD rats; conditions: rat
Procedure: FIG. 1 is a graph showing the recovery of the blood pressure of rats anesthetized with enflurane with time, when each of Ap4A ( ), PG E1 ( ) and nitroglycerin ( ) was used as a test drug to attain gradual hypotension, with the blood pressure before the administration of each test drug being set 100% for reference.
The recovery of blood pressure after gradual hypotension by use of each of Ap4A, PG E1 and nitroglycerin was also tested.
as §1
In a test similar to the above, each of Ap4A, PG E1, and nitroglycerin was administered to rats, so that about 65% fall in blood pressure, about 55% fall in blood pressure, and about 35% fall in blood pressure were stepwise attained. With respect to each agent, the recovery of blood pressure was tested.

Nc1ncnc2c1ncn2[C@@H]1O[C@H](COP(=O)(O)OP(=O)(O)O)[C@@H](O)[C@H]1O [ADP, adenosine diphosphate, reference compound]
concentration inducing maximal platelet aggregation [1]: 10 µM

Nc1ncnc2c1ncn2[C@@H]1O[C@H](COP(=O)(O)OP(=O)(O)OP(=O)(O)OC[C@H]2O[C@@H](n3cnc4c(N)ncnc43)[C@H](O)[C@@H]2O)[C@@H](O)[C@H]1O [Ap3A, diadenosine 5', 5'"-p^1,p^4 -triphosphate, reference compound]
concentration inducing maximal platelet aggregation [1]: 100 µM

FC(F)(F)C(Cl)Br (stereo not drawn) [Halothane]
shortcomings / adverse effects [2]: hepatotoxicity and sthenia of brain pressure

CCCCCCCCCCCCCCCCOCC(COP(=O)([O-])OCC[N+](C)(C)C)OC(C)=O (stereo not drawn) [PAF, reference compound]
concentration inducing maximal platelet aggregation [1]: 0.19 µM

CCCCC[C@H](O)/C=C/[C@H]1[C@H](O)CC(=O)[C@@H]1CCCCCCC(=O)O [PG E1, prostaglandin E1, reference compound]
Arterial Carbonate Tension PaCO2 (dogs; at -20% blood pressure): 37.3 ± 1.4 mmHg | Arterial Oxygen Tension PaO2 (dogs; at -20% blood pressure): 251.6 ± 8.3 mmHg | Arterial pH (pH-a) (dogs; at -20% blood pressure): 7.323 ± 0.015 | Body Temperature BT (dogs; at -20% blood pressure): 37.4 ± 0.6 °C | Cardiac Output C.O. (dogs; at -20% blood pressure): 1.47 ± 0.18 L/min | Central Venous Pressure CVP (dogs; at -20% blood pressure): 3.27 ± 0.59 mmHg | Dose (dogs; at -20% blood pressure): 1.66 ± 0.48 µg/kg/min | Heart Rate H.R. (dogs; at -20% blood pressure): 167.8 ± 8.6 beats/min | Hematocrit Value Hct (dogs; at -20% blood pressure): 41.5 ± 2.9% | Mean Blood Pressure B.P. (mean) (dogs; at -20% blood pressure): 107.2 ± 5.3 | Mean Blood Pressure B.P. (Δ%) (dogs; at -20% blood pressure): -20.3 ± 0.4% | Mixed Venous Carbonate Tension PvCO2 (dogs; at -20% blood pressure): 41.3 ± 1.3 mmHg | Mixed Venous Oxygen Tension PvO2 (dogs; at -20% blood pressure): 51.0 ± 1.0 mmHg | Mixed Venous pH (pH-v) (dogs; at -20% blood pressure): 7.303 ± 0.009 | Pulmonary Artery Pressure PAM (dogs; at -20% blood pressure): 16.0 ± 3.8 mmHg | Pulmonary Capillary Wedge Pressure PCWP (dogs; at -20% blood pressure): 9.0 ± 3.0 mmHg | Arterial Carbonate Tension PaCO2 (dogs; at -40% blood pressure): 36.0 ± 0.7 mmHg | Arterial Oxygen Tension PaO2 (dogs; at -40% blood pressure): 249.3 ± 6.0 mmHg | Arterial pH (pH-a) (dogs; at -40% blood pressure): 7.334 ± 0.012 | Body Temperature BT (dogs; at -40% blood pressure): 37.3 ± 0.6 °C | Cardiac Output C.O. (dogs; at -40% blood pressure): 1.20 ± 0.14 L/min | Central Venous Pressure CVP (dogs; at -40% blood pressure): 3.12 ± 0.47 mmHg | Dose (dogs; at -40% blood pressure): 3.61 ± 1.01 µg/kg/min | Heart Rate H.R. (dogs; at -40% blood pressure): 155.5 ± 9.1 beats/min | Hematocrit Value Hct (dogs; at -40% blood pressure): 39.8 ± 3.3% | Mean Blood Pressure B.P. (mean) (dogs; at -40% blood pressure): 79.8 ± 4.6 | Mean Blood Pressure B.P. (Δ%) (dogs; at -40% blood pressure): -40.7 ± 0.5% | Mixed Venous Carbonate Tension PvCO2 (dogs; at -40% blood pressure): 39.7 ± 1.0 mmHg | Mixed Venous Oxygen Tension PvO2 (dogs; at -40% blood pressure): 50.0 ± 1.9 mmHg | Mixed Venous pH (pH-v) (dogs; at -40% blood pressure): 7.286 ± 0.012 | Pulmonary Artery Pressure PAM (dogs; at -40% blood pressure): 13.3 ± 3.0 mmHg | Pulmonary Capillary Wedge Pressure PCWP (dogs; at -40% blood pressure): 6.8 ± 2.1 mmHg | Arterial Carbonate Tension PaCO2 (dogs; at -50% blood pressure): 36.9 ± 1.0 mmHg | Arterial Oxygen Tension PaO2 (dogs; at -50% blood pressure): 251.7 ± 9.3 mmHg | Arterial pH (pH-a) (dogs; at -50% blood pressure): 7.303 ± 0.017 | Body Temperature BT (dogs; at -50% blood pressure): 37.2 ± 0.6 °C | Cardiac Output C.O. (dogs; at -50% blood pressure): 1.17 ± 0.11 L/min | Central Venous Pressure CVP (dogs; at -50% blood pressure): 3.48 ± 0.56 mmHg | Dose (dogs; at -50% blood pressure): 4.77 ± 1.14 µg/kg/min | Heart Rate H.R. (dogs; at -50% blood pressure): 143.3 ± 7.3 beats/min | Hematocrit Value Hct (dogs; at -50% blood pressure): 40.0 ± 3.5% | Mean Blood Pressure B.P. (mean) (dogs; at -50% blood pressure): 67.5 ± 3.4 | Mean Blood Pressure B.P. (Δ%) (dogs; at -50% blood pressure): -49.8 ± 0.2% | Mixed Venous Carbonate Tension PvCO2 (dogs; at -50% blood pressure): 41.6 ± 0.6 mmHg | Mixed Venous Oxygen Tension PvO2 (dogs; at -50% blood pressure): 53.3 ± 4.5 mmHg | Mixed Venous pH (pH-v) (dogs; at -50% blood pressure): 7.278 ± 0.015 | Pulmonary Artery Pressure PAM (dogs; at -50% blood pressure): 12.8 ± 2.7 mmHg | Pulmonary Capillary Wedge Pressure PCWP (dogs; at -50% blood pressure): 6.7 ± 2.0 mmHg | Arterial Carbonate Tension PaCO2 (dogs; at -60% blood pressure): 36.8 ± 1.0 mmHg | Arterial Oxygen Tension PaO2 (dogs; at -60% blood pressure): 253.2 ± 11.92 mmHg | Arterial pH (pH-a) (dogs; at -60% blood pressure): 7.308 ± 0.022 | Body Temperature BT (dogs; at -60% blood pressure): 36.9 ± 0.7 °C | Cardiac Output C.O. (dogs; at -60% blood pressure): 1.04 ± 0.10 L/min | Central Venous Pressure CVP (dogs; at -60% blood pressure): 3.70 ± 0.76 mmHg | Dose (dogs; at -60% blood pressure): 5.91 ± 1.49 µg/kg/min | Heart Rate H.R. (dogs; at -60% blood pressure): 134.6 ± 7.2 beats/min | Hematocrit Value Hct (dogs; at -60% blood pressure): 38.4 ± 4.5% | Mean Blood Pressure B.P. (mean) (dogs; at -60% blood pressure): 56.0 ± 4.3 | Mean Blood Pressure B.P. (Δ%) (dogs; at -60% blood pressure): -58.1 ± 1.3% | Mixed Venous Carbonate Tension PvCO2 (dogs; at -60% blood pressure): 40.6 ± 1.2 mmHg | Mixed Venous Oxygen Tension PvO2 (dogs; at -60% blood pressure): 49.9 ± 3.1 mmHg | Mixed Venous pH (pH-v) (dogs; at -60% blood pressure): 7.275 ± 0.016 | Pulmonary Artery Pressure PAM (dogs; at -60% blood pressure): 12.4 ± 3.4 mmHg | Pulmonary Capillary Wedge Pressure PCWP (dogs; at -60% blood pressure): 6.2 ± 2.2 mmHg | effect on arterial pH / venous pH (dogs; result in words): significantly decrease arterial pH or have a tendency to decrease arterial pH | effect on carbonate tension (dogs; result in words): almost no effects on the oxygen tension and carbonate tension | effect on heart rate (dogs; result in words): tendency to increase the heart rate when a 20% or less fall in blood pressure is attained | effect on oxygen tension (dogs; result in words): almost no effects on the oxygen tension and carbonate tension | Blood Pressure (Δ%) (rats [3]; infusion 0.03 μg/kg/min): 0% | Heart Rate (Δ%) (rats [3]; infusion 0.03 μg/kg/min): 0% | Blood Pressure (Δ%) (rats [3]; infusion 0.1 μg/kg/min): 0% | Heart Rate (Δ%) (rats [3]; infusion 0.1 μg/kg/min): 0% | Blood Pressure (Δ%) (rats [3]; infusion 0.3 μg/kg/min): -1.9 ± 1.9% | Heart Rate (Δ%) (rats [3]; infusion 0.3 μg/kg/min): -0.3 ± 0.3% | Blood Pressure (Δ%) (rats [3]; infusion 1 μg/kg/min): -9.8 ± 3.1% | Heart Rate (Δ%) (rats [3]; infusion 1 μg/kg/min): -1.2 ± 1.4% | Blood Pressure (Δ%) (rats [3]; infusion 3 μg/kg/min): -26.2 ± 4.0% | Heart Rate (Δ%) (rats [3]; infusion 3 μg/kg/min): -8.0 ± 3.4% | Blood Pressure (Δ%) (rats [3]; infusion 10 μg/kg/min): -48.0 ± 2.7% | Heart Rate (Δ%) (rats [3]; infusion 10 μg/kg/min): -13.6 ± 2.9% | recovered blood pressure (before administration = 100%) (rats [4]; 15 minutes): about 85% | fall in blood pressure attained before recovery (rats [4]; stepwise): about 55% | rapidness of the recovery of blood pressure (rats [4]; order in words): Ap4A>PG E1 >nitroglycerin

O=C1N(Cc2ccccc2)C2C[S+]3CCCC3C2N1Cc1ccccc1 (stereo not drawn) [trimethaphan, Trimethaphan]
shortcomings / adverse effects [2]: renal insufficiency because of tubular impairment near the kidney, tachyphylaxis, tachycardia, and mydriasis after its use | shortcomings / adverse effects ([2]; listed as Trimethaphan): cardiac contractility, cardiac output, and coronary blood flow are decreased by the ganglionic blockade thereof and histamine liberation effect is increased

collagen [reference compound]
concentration inducing maximal platelet aggregation [1]: 5 µg/kg
